Test results taken from ChEMBL document CHEMBL2203245 (Bioorg Med Chem Lett, 2012).
pEC50, pIC50, pKi: −log10 of the molar value.

Legend:
[1] = biological target: T1, Kappa-type opioid receptor (Homo sapiens, UniProt P41145); assay: Agonist activity at human kappa opioid receptor expressed in CHO cells assessed as [35S]GTPgammaS binding after 60 mins by scintillation counting; format: functional, cell-based
Mu-type opioid receptor [2] = biological target: T2, Mu-type opioid receptor (Homo sapiens, UniProt P35372); assay: Partial agonist activity at human mu opioid receptor expressed in CHO cells assessed as [35S]GTPgammaS binding after 60 mins by scintillation counting relative to untreated-control; format: functional, cell-based
[3] = biological target: T3, Delta-type opioid receptor (Homo sapiens, UniProt P41143); assay: Antagonist activity at human delta opioid receptor expressed in CHO cells assessed as inhibition of SNC80-induced [35S]GTPgammaS binding after 60 mins by scintillation counting; format: functional, cell-based; conditions: for IC50: cho
[4] = biological target: T1, Kappa-type opioid receptor; assay: Displacement of [3H]U69,593 from human kappa opioid receptor expressed in CHO cells after 60 mins by scintillation counting; format: cell-based
Mu-type opioid receptor [5] = biological target: T2, Mu-type opioid receptor; assay: Antagonist activity at human mu opioid receptor expressed in CHO cells assessed as inhibition of DAMGO-induced [35S]GTPgammaS binding after 60 mins by scintillation counting relative to untreated-control; format: functional, cell-based
[6] = biological target: T3, Delta-type opioid receptor; assay: Agonist activity at human delta opioid receptor expressed in CHO cells assessed as [35S]GTPgammaS binding after 60 mins by scintillation counting; format: functional, cell-based
[7] = biological target: T1, Kappa-type opioid receptor; assay: Antagonist activity at human kappa opioid receptor expressed in CHO cells assessed as inhibition of U50,488-induced [35S]GTPgammaS binding after 60 mins by scintillation counting; format: functional, cell-based
[8] = biological target: T3, Delta-type opioid receptor; assay: Displacement of [3H]Naltrindole from human delta opioid receptor expressed in CHO cells after 3 hrs by scintillation counting; format: cell-based
Mu-type opioid receptor [9] = biological target: T2, Mu-type opioid receptor; assay: Displacement of [3H]DAMGO from human mu opioid receptor expressed in CHO cells after 60 mins by scintillation counting; format: cell-based
Homo sapiens [10] = species: Homo sapiens; assay: Selectivity ratio of Ki for human delta opioid receptor to Ki for human mu opioid receptor
Homo sapiens [11] = species: Homo sapiens; assay: Selectivity ratio of Ki for human kappa opioid receptor to Ki for human mu opioid receptor
Mu-type opioid receptor [12] = biological target: T2, Mu-type opioid receptor; assay: Antagonist activity at human mu opioid receptor expressed in CHO cells assessed as inhibition of DAMGO-induced [35S]GTPgammaS binding after 60 mins by scintillation counting; format: functional, cell-based
Mu-type opioid receptor [13] = biological target: T2, Mu-type opioid receptor; assay: Partial agonist activity at human mu opioid receptor expressed in CHO cells assessed as [35S]GTPgammaS binding after 60 mins by scintillation counting; format: functional, cell-based
[14] = biological target: T3, Delta-type opioid receptor; assay: Partial agonist activity at human delta opioid receptor expressed in CHO cells assessed as [35S]GTPgammaS binding after 60 mins by scintillation counting; format: functional, cell-based
[15] = biological target: T3, Delta-type opioid receptor; assay: Partial agonist activity at human delta opioid receptor expressed in CHO cells assessed as [35S]GTPgammaS binding after 60 mins by scintillation counting relative to untreated control; format: functional, cell-based
Mu-type opioid receptor [16] = biological target: T2, Mu-type opioid receptor; assay: Agonist activity at human mu opioid receptor expressed in CHO cells assessed as [35S]GTPgammaS binding after 60 mins by scintillation counting relative to untreated-control; format: functional, cell-based

T2 sequence (P35372 whole entry): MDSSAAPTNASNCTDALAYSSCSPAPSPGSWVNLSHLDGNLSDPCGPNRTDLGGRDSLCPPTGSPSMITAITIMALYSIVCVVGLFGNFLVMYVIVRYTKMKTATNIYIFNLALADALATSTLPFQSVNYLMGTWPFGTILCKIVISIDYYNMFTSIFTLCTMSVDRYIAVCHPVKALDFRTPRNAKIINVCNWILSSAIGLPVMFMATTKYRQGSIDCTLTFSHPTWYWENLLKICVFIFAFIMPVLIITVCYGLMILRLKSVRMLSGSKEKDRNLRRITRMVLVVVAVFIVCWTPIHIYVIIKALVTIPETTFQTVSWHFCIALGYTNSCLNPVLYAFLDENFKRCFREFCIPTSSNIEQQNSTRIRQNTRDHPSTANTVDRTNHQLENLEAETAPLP
T3 sequence (P41143 whole entry): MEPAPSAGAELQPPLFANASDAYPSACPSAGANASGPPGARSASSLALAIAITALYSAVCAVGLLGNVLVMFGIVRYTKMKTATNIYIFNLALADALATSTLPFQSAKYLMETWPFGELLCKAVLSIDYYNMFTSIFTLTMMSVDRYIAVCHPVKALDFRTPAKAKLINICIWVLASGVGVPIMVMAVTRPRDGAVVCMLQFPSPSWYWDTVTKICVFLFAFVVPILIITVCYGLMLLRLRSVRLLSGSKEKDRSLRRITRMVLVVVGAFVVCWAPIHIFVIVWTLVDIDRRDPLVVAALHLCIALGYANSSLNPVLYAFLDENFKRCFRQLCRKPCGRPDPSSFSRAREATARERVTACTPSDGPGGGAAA
T1 sequence (P41145 whole entry): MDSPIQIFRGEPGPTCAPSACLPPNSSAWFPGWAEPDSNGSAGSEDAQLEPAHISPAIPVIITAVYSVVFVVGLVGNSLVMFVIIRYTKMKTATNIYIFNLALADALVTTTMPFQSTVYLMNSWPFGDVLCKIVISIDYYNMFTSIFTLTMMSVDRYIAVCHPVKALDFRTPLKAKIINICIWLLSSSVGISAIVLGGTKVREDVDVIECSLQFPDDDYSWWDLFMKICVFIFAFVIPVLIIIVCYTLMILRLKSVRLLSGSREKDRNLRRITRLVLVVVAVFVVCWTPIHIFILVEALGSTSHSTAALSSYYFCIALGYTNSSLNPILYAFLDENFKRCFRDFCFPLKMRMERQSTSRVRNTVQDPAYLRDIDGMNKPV

SMILES | pEC50 [1] | Emax (Mu-type opioid receptor [2]) [%] | IC50 [3] | pKi [4] | Imax (Mu-type opioid receptor [5]) [%] | pEC50 [6] | IC50 [7] | pKi [8] | pKi (Mu-type opioid receptor [9]) | Ratio Ki (Homo sapiens [10]) | Ratio Ki (Homo sapiens [11]) | pIC50 (Mu-type opioid receptor [12]) | pEC50 (Mu-type opioid receptor [13]) | pIC50 ([3]; read-out: IC50) | pEC50 [14] | Emax [15] [%] | Emax (Mu-type opioid receptor [16]) [%]
C[C@H]1[C@H]2Cc3ccc(C(=O)NCCc4ccc(-c5ccc(O)cc5)cc4)cc3[C@]1(C)CCN2CC1CC1 | 9.59 | 31 | Not Active | 9.44 | 62 | 9.51 | Not Active | 9.11 | – | – | – | – | – | – | – | – | –
CC1C2Cc3ccc(C(=O)NCCc4ccc(-c5ccc(OC(F)(F)F)cc5)cc4)cc3C1(C)CCN2CC1CC1 (racemic) | – | – | – | 8.28 | – | – | – | 8.18 | 8.74 | 4 | 3 | – | – | – | – | – | –
CC1C2Cc3ccc(C(=O)NCCc4ccc(-c5ccc(OC(F)F)cc5)cc4)cc3C1(C)CCN2CC1CC1 (racemic) | – | – | – | 8.57 | – | – | – | 9.10 | 9.52 | 3 | 9 | – | – | – | – | – | –
CC1C2Cc3ccc(C(=O)NCCc4ccc(-c5cccc(O)c5)cc4)cc3C1(C)CCN2CC1CC1 (racemic) | – | – | – | 8.89 | – | – | – | 8.92 | 10.68 | 57 | 62 | – | – | – | – | – | –
CC1C2Cc3ccc(C(=O)NCCc4ccc(-c5ccccc5O)cc4)cc3C1(C)CCN2CC1CC1 (racemic) | 10.07 | 48 | Not Active | 8.68 | 67 | 9.80 | Not Active | 9.62 | 11.25 | – | – | 7.19 | 8.82 | – | – | – | –
COc1ccc(-c2ccc(CCNC(=O)c3ccc4c(c3)C3(C)CCN(CC5CC5)C(C4)C3C)cc2)cc1OC (racemic) | 8.52 | 32 | – | 8.89 | 70 | – | Not Active | 8.82 | 11.15 | 211 | 183 | 7.54 | 8.80 | 7.15 | 8.21 | 73 | –
CC1C2Cc3ccc(C(=O)NCCc4ccc(-c5ccc6c(c5)OCO6)cc4)cc3C1(C)CCN2CC1CC1 (racemic) | 9.47 | – | Not Active | – | – | 9.10 | Not Active | – | – | – | – | – | – | – | – | – | –
COc1ccc(-c2ccc(CCNC(=O)c3ccc4c(c3)C3(C)CCN(CC5CC5)C(C4)C3C)cc2)cc1C (racemic) | – | 21 | Not Active | – | 81 | 8.55 | Not Active | – | – | – | – | – | – | – | – | – | –
COc1ccc2cc(CCNC(=O)c3ccc4c(c3)C3(C)CCN(CC5CC5)C(C4)C3C)ccc2c1 (racemic) | 8.89 | – | Not Active | 9.35 | 76 | 8.12 | Not Active | 8.66 | 10.19 | – | – | 7.35 | – | – | – | – | 6.6
CC1C2Cc3ccc(C(=O)NCCc4ccc5ccccc5c4)cc3C1(C)CCN2CC1CC1 (racemic) | – | – | – | 9.70 | – | – | – | 9.05 | 9.74 | 5 | 1 | – | – | – | – | – | –
COc1ccc(-c2ccc(CCNC(=O)c3ccc4c(c3)C3(C)CCN(CC5CC5)C(C4)C3C)cc2)cc1 (racemic) | – | – | – | 8.82 | – | – | – | 9.74 | 10.08 | 2 | 18 | – | – | – | – | – | –
COc1cccc(-c2ccc(CCNC(=O)c3ccc4c(c3)C3(C)CCN(CC5CC5)C(C4)C3C)cc2)c1 (racemic) | 8.51 | – | Not Active | 9.66 | – | 8.92 | Not Active | 8.89 | – | – | – | – | – | – | – | – | –
COc1ccccc1-c1ccc(CCNC(=O)c2ccc3c(c2)C2(C)CCN(CC4CC4)C(C3)C2C)cc1 (racemic) | – | – | – | 9.42 | – | – | – | 9.08 | 9.92 | 7 | 3 | – | – | – | – | – | –
CC(C)Oc1ccc(-c2ccc(CCNC(=O)c3ccc4c(c3)C3(C)CCN(CC5CC5)C(C4)C3C)cc2)cc1 (racemic) | – | 35 | Not Active | – | 72 | 7.74 | Not Active | – | – | – | – | 7.89 | 8.64 | – | – | – | –
CC1C2Cc3ccc(O)cc3C1(C)CCN2CC1CC1 (racemic) | – | – | – | 10.15 | – | – | – | 8.70 | – | – | – | – | – | – | – | – | –
